Results on 50 molecules are retold here after ChEMBL document CHEMBL1151716 (J Med Chem, 2008).

By pIC50 is commonly meant the IC50 on a negative log10 scale, so that one unit is a factor of ten. Read a low pIC50 as a high IC50. Usually solubility stands for how much of the substance goes into solution per volume. High values mean much dissolved substance, low ones little dissolved substance.

Data set [1] addresses 3',5'-cyclic-AMP phosphodiesterase 4D (Homo sapiens, UniProt Q08499).
Description: Inhibition of full length human PDE4D2 expressed in Escherichia coli BL21 by liquid scintillation counting
In data set [2] the target is High affinity 3',5'-cyclic-AMP phosphodiesterase 7A (Homo sapiens, UniProt Q13946). Put plainly: Inhibition of human cloned PDE7A1 catalytic domain expressed in Escherichia coli BL21 by liquid scintillation counting.
Chain of High affinity 3',5'-cyclic-AMP phosphodiesterase 7A (Q13946 whole entry, the tested form may be a part): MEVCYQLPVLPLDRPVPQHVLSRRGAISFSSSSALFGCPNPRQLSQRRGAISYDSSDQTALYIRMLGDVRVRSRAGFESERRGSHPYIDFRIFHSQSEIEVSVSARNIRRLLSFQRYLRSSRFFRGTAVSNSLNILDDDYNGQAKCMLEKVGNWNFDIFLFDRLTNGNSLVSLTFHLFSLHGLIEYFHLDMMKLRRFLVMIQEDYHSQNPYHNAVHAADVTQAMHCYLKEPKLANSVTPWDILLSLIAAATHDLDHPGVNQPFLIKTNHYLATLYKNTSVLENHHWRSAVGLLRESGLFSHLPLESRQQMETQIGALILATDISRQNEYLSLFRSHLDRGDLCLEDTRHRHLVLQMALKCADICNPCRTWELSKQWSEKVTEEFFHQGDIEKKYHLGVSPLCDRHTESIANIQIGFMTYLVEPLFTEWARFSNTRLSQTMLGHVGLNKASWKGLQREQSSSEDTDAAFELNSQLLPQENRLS
In data set [3] the target is High affinity cGMP-specific 3',5'-cyclic phosphodiesterase 9A (Homo sapiens, UniProt O76083). Put plainly: Inhibition of human cloned PDE9A2 expressed in Escherichia coli BL21 by liquid scintillation counting.
Chain of High affinity cGMP-specific 3',5'-cyclic phosphodiesterase 9A (O76083 whole entry): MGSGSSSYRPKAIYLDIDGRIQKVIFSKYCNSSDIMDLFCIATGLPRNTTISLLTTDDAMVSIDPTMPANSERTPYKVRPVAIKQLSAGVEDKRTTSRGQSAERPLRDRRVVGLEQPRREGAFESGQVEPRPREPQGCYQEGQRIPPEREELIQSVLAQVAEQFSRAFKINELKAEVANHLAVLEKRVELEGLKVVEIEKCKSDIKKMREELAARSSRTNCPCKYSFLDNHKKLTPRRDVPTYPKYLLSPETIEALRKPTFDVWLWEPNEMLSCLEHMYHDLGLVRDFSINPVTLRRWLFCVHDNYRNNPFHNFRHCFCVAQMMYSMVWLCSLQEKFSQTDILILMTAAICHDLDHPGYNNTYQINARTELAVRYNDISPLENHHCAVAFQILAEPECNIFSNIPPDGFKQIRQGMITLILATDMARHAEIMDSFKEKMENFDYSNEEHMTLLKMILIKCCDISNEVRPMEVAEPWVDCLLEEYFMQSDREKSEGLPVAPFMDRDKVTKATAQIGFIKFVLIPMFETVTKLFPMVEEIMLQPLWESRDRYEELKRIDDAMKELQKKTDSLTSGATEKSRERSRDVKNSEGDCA
Data set [4] deals with cGMP-dependent 3',5'-cyclic phosphodiesterase (Homo sapiens, UniProt O00408). Put plainly: Inhibition of human cloned PDE2A3 expressed in Escherichia coli BL21 by liquid scintillation counting.
Chain of cGMP-dependent 3',5'-cyclic phosphodiesterase (O00408 whole entry): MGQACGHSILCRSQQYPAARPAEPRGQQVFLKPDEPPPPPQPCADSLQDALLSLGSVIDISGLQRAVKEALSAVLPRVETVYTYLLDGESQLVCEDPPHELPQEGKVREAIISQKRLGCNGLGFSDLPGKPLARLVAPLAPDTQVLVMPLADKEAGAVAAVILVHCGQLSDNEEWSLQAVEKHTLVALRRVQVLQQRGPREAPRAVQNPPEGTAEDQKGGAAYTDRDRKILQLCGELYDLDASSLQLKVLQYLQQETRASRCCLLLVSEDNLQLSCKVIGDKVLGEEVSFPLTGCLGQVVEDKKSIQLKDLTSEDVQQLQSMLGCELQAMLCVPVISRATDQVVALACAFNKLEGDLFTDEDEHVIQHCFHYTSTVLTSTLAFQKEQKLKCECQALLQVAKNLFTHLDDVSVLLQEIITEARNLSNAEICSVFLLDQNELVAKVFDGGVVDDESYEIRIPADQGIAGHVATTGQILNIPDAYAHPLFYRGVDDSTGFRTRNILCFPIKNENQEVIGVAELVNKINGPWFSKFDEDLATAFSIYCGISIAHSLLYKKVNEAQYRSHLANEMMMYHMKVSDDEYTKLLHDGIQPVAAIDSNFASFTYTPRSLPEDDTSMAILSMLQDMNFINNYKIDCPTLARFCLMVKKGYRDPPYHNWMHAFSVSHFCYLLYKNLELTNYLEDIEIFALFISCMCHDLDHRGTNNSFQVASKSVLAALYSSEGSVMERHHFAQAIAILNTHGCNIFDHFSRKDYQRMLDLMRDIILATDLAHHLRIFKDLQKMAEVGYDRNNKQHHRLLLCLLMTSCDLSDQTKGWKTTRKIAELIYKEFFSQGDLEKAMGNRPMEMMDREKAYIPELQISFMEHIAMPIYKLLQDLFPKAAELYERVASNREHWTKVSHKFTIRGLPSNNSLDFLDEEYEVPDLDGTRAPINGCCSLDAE
Data set [5] concerns the target cGMP-specific 3',5'-cyclic phosphodiesterase (Homo sapiens, UniProt O76074). Put plainly: Inhibition of human cloned PDE5A1 expressed in Escherichia coli BL21 by liquid scintillation counting.
Another data set has as its system PBMC. The data set is described as follows: Inhibition of LPS-induced TNFalpha production in human PBMC. It counts as functional, cell-based.
The nature of data set [6]: Solubility in heavy water. It counts as physicochemical.

Structures are written as SMILES. pIC50: −log10 of the molar value. In brackets after ≈: the same amount, converted by molar mass. Several values for one entry are separate records, joined by “and”; a condition that tells them apart may be missing. Identical values can stand only once. Bounds are passed on as bounds.

Chain of 3',5'-cyclic-AMP phosphodiesterase 4D (Q08499 whole entry, the tested form may be a part): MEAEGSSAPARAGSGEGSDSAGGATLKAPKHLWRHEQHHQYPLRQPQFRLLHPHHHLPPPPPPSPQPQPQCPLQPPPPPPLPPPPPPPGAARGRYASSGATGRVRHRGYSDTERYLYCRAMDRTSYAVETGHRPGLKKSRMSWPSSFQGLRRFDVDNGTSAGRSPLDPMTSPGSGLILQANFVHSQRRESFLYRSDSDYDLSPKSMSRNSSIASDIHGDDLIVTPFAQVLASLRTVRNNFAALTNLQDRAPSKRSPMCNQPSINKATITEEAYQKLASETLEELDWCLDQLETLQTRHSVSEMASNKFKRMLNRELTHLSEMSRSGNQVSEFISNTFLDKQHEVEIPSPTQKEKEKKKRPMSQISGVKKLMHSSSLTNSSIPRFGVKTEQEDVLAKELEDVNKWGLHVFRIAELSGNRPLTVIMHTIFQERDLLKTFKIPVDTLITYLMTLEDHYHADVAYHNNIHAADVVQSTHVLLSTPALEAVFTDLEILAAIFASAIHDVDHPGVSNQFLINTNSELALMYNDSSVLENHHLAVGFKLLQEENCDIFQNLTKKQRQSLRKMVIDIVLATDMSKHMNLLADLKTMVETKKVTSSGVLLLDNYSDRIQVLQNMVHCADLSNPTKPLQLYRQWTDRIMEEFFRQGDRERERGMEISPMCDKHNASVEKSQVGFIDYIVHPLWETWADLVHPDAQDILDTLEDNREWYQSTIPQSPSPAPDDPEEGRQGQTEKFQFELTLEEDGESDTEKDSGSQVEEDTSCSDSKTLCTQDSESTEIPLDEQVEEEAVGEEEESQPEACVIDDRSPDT

In data set [1], `CCCOc1cc(C(=O)Nc2c(F)cccc2F)ccc1OC` gave a pIC50 of 5.80. Regarding `COc1ccc(C(=O)Nc2ccccc2C(F)(F)F)cc1OC1CCCC1`, in data set [1], the pIC50 is 5.51. Still for that read-out and setting: under `CCCCC(=O)c1ccc(OC)c(OC2CCOCC2)c1` stands 6.14; under `CCCC(=O)c1ccc(OC2CCOC2)c(OC)c1` (stereo not drawn), 4.62. Same read-out and setting: as for `CCCC(O)c1ccc(OC2CCOCC2)c(OC)c1` (stereo not drawn), the figure is < 4.00 and 2.82; as for `CCCCC(=O)c1ccc(OC2CCOCC2)c(OC)c1`, 4.15. The same measure, in the same setting: under `COc1ccc(C(=O)Nc2c(F)cccc2F)cc1OC1CCCCC1` stands 6.40; under `COc1ccc(C(=O)Nc2c(F)cccc2F)cc1O`, 4.43; under `CCCCC(=O)c1ccc(OC2CCN(C(=O)OC(C)(C)C)CC2)c(OC)c1`, 4.03. For the molecule `CCCC(=O)c1ccc(OC2CCN(C(=O)OC(C)(C)C)CC2)c(OC)c1`, the pIC50 in data set [1] is 4.54. The same measure, in the same setting: under `COc1ccc(C(=O)CCC2CCCCC2)cc1OC1CCOC1` (stereo not drawn) stands 5.72. On the same count and under the same terms, under `CCCCC(=O)c1ccc(OC2CCOC2)c(OC)c1` (stereo not drawn) stands 4.00; under `COc1ccc(C(=O)c2cnc3ccccc3c2)cc1OC1CCOCC1`, 4.35. In the case of `CCCC(=O)c1ccc(OC)c(OC2CCOCC2)c1`, the pIC50 is less than 4.30 in data set [2]; less than 4.30 in data set [3]; less than 4.30 in data set [4]; less than 4.30 in data set [5]; 5.46 in data set [1].

With `CCCCC(=O)c1ccc(OC)c(OC2CCOC2)c1` (stereo not drawn), the pIC50 in data set [1] is 6.66. For `CCCC(=O)c1ccc(OC)c(OC2CCOC2)c1` (stereo not drawn), the pIC50 in data set [1] is 6.37. Compared with the last molecule, the pIC50 is 0.29 log units lower. Still for that read-out and setting: as for `CC(C)(C)C(=O)c1ccc(OC(F)F)c(OC2CCOC2)c1` (stereo not drawn), the figure is 6.39; as for `COc1ccc(C(=O)CC(C)C)cc1OC1CCOC1` (stereo not drawn), 6.72 and 6.75. Still for that read-out and setting: under `O=C(CCc1ccccc1)c1ccc(OC(F)F)c(OC(F)F)c1` stands 6.09; under `O=C(CC1CCCCC1)c1ccc(OC(F)F)c(OC(F)F)c1`, 5.28; under `O=C(CCCc1ccccc1)c1ccc(OC(F)F)c(OC(F)F)c1`, 4.36. With `COc1ccc(C(=O)CCC(C)C)cc1OC1CCOC1` (stereo not drawn), the pIC50 in data set [1] was 6.42.

Turning to `COc1cc(C(CC(C)=O)c2cnc3ccccc3c2)ccc1Oc1ccccn1` (stereo not drawn), the pIC50 in data set [2] is less than 4.30; in data set [3] it was less than 4.30; in data set [4], less than 4.30; in data set [5] it was less than 4.30; in data set [1] it was 5.22. In data set [1], `COc1cc(C(CC(C)=O)c2cccnc2)ccc1O` (stereo not drawn) gave a pIC50 of 4.10. Still for that read-out and setting: under `CCCCC(c1cccnc1)c1ccc(Oc2ccccn2)c(OC)c1` (stereo not drawn) stands 5.00. Same read-out and setting: under `O=C(CCC1CCCCC1)c1ccc(OC(F)F)c(OC2CCOC2)c1` (stereo not drawn) stands 5.96; under `O=C(CCc1ccccc1)c1ccc(OC(F)F)c(OC2CCOC2)c1` (stereo not drawn), 6.74. Same read-out and setting: under `CCCC(=O)c1ccc(OC(F)F)c(Oc2ccccn2)c1` stands 4.40. `CCCC(=O)c1ccc(OC(F)F)c(OC2CCOCC2)c1` had a pIC50 in data set [1] of 6.46.

Consider `CC(C)CC(=O)c1ccc(OC(F)F)c(OC2CCOC2)c1` (stereo not drawn), for which the pIC50 was less than 4.30 in data set [2]; less than 4.30 in data set [3]; less than 4.30 in data set [4]; less than 4.30 in data set [5]; 7.40 in the data set with PBMC.

Consider `COc1ccc(C(=O)Nc2c(Cl)cccc2Cl)cc1OC1CCCC1`, for which, in data set [1], the pIC50 was 7.55.

`COc1ccc(C(=O)Nc2ccccc2Cl)cc1OC`: the pIC50 in data set [1] was 6.19. On to `CCCCC(=O)c1ccc(OC(F)F)c(OC2CCN(C(=O)OC(C)(C)C)CC2)c1`, for which, in data set [1], the pIC50 was 5.66.

In turn, `O=C(CC1CCCCC1)c1ccc(OC(F)F)c(OC2CCOC2)c1` (stereo not drawn) had a pIC50 in data set [1] of 6.18.

Turning to `O=C(CCCc1ccccc1)c1ccc(OC(F)F)c(OC2CCOC2)c1` (stereo not drawn), the pIC50 in data set [1] is 6.20. Same read-out and setting: under `COc1ccc(C(=O)CC2CCCCC2)cc1OC1CCOC1` (stereo not drawn) stands 5.59.

In data set [6], `CCCCC(=O)c1ccc(OC)c(OC2CCNCC2)c1` gave a solubility of 800 µM (≈ 233 µg/mL). Besides, the pIC50 in data set [1] was 3.99. With `CCCCC(O)c1ccc(OC2CCOC2)c(OC)c1` (stereo not drawn), the pIC50 in data set [1] was < 4.00 and 3.40. Still for that read-out and setting: under `CCCC(O)c1ccc(OC2CCOC2)c(OC)c1` (stereo not drawn) stands < 4.00 and 3.28. On the same count and under the same terms, as for `CCCCC(O)c1ccc(OC)c(OC2CCOC2)c1` (stereo not drawn), the figure is 5.00. Same read-out and setting: under `COc1ccc(C(=O)Nc2c(F)cccc2F)cc1OC1CCCC1` stands 7.15. In data set [1], `COc1ccc(C(=O)Nc2ccccc2F)cc1OC1CCCC1` had a pIC50 of 4.97.

Take `CCCCC(O)c1ccc(OC2CCOCC2)c(OC)c1` (stereo not drawn): the pIC50 in data set [1] is < 4.00 and 3.27. Still for that read-out and setting: under `CCCCC(=O)c1ccc(OC(F)F)c(OC2CCOC2)c1` (stereo not drawn) stands 7.21; under `CCCC(=O)c1ccc(OC2CCOCC2)c(OC)c1`, 4.22. In the case of `CC(C)CC(=O)c1ccc(OC(F)F)c(OC2CCCC2)c1`, the pIC50 is 7.00 in the data set on PBMC and 7.55 in data set [1]. As to `COc1ccc(C(=O)CCc2ccccc2)cc1OC1CCOC1` (stereo not drawn), the pIC50 in data set [1] is 5.59. Turning to `CCCC(O)(c1ccc(Oc2ccccn2)c(OC)c1)c1cnc2ccccc2c1` (stereo not drawn), the pIC50 in data set [2] is 4.77; in data set [3], less than 4.30; in data set [4], less than 4.30; in data set [5], 4.40; in data set [1], 5.22. In the case of `COc1ccc(C(=O)CCCc2ccccc2)cc1OC1CCOC1` (stereo not drawn), the pIC50 in data set [1] was 5.64. Take `COc1ccc(C(=S)Nc2c(Cl)cccc2Cl)cc1OC1CCCC1`: the pIC50 in data set [1] is 6.70.
